Measurements published in patent US10150760B2, “Compounds for use in preparing heterocyclic triazole agonists of the APJ receptor” (AMGEN INC., priority 2016, dated 2018).
pEC50: −log10 of the molar value.

Molecular target: human APJ receptor (Homo sapiens (Human), UniProt P35414)
Assay: [35S]GTPγS binding assay on membranes from CHO cells stably expressing human APJ receptor
Type: biochemical
Conditions: read-out: Activity hAPJ SPA EC50 IP
How it was run: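 Membranes from CHO cells stably expressing human APJ incubated with ligand, 0.2 nM [35S]GTPγS and WGA SPA beads in HEPES pH 7.5 with 5 mM MgCl2, 200 mM NaCl, 3 μM GDP, 90 min at RT. Nonspecific binding defined with 100 μM GTPγS; EC50 by non-linear regression.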

human APJ receptor, sequence (P35414 whole entry): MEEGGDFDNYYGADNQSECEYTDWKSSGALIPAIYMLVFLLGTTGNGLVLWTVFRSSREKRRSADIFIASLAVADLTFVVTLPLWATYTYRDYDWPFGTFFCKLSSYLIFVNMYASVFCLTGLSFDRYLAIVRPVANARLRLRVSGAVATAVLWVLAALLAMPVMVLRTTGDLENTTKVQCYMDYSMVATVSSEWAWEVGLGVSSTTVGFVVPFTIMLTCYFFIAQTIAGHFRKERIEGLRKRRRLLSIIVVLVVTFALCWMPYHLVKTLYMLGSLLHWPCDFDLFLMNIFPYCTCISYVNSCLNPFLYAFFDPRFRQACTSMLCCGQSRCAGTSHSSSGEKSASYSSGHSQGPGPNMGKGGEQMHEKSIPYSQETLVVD

Row | Compound | pEC50
1 | COc1cccc(OC)c1-n1c(NS(=O)(=O)CCc2ccc(F)cc2C#N)nnc1[C@@H]1CCCO1 (single isomer, unassigned) [Example 148.0, (S)-2-(2-Cyano-4-fluorophenyl)-N-(4-(2,6-dimethoxyphenyl)-5-(tetrahydrofuran-2-yl)-4H-1,2,4-triazol-3-yl)ethanesulfonamide or (R)-2-(2-cyano-4-fluorophenyl)-N-(4-(2,6-dimethoxyphenyl)-5-(tetrahydrofuran-2-yl)-4H-1,2,4-triazol-3-yl)ethanesulfonamide] | 6.17
2 | CCC(CC)n1c(NS(=O)(=O)[C@@H](C)[C@H](OC)c2ncc(Cl)cn2)nnc1[C@@H]1COCCO1 (single isomer, unassigned) [Example 336.0, (1R,2S)-1-(5-chloro-2-pyrimidinyl)-N-(5-((2R)-1,4-dioxan-2-yl)-4-(3-pentanyl)-4H-1,2,4-triazol-3-yl)-1-methoxy-2-propanesulfonamide or (1R,2S)-1-(5-chloro-2-pyrimidinyl)-N-(5-((2S)-1,4-dioxan-2-yl)-4-(3-pentanyl)-4H-1,2,4-triazol-3-yl)-1-methoxy-2-propanesulfonamide] | 5.85
3 | COc1cccc(OC)c1-n1c(NS(=O)(=O)CCc2ccc(F)cc2C#N)nnc1[C@@H]1CCCO1 (single isomer, unassigned) [Example 147.0, (S)-2-(2-Cyano-4-fluorophenyl)-N-(4-(2,6-dimethoxyphenyl)-5-(tetrahydrofuran-2-yl)-4H-1,2,4-triazol-3-yl)ethanesulfonamide or (R)-2-(2-cyano-4-fluorophenyl)-N-(4-(2,6-dimethoxyphenyl)-5-(tetrahydrofuran-2-yl)-4H-1,2,4-triazol-3-yl)ethanesulfonamide] | 7.43
4 | CO[C@H](c1ncc(Cl)cn1)[C@H](C)S(=O)(=O)Nc1nnc([C@H]2CCOC2)n1C1(C)CC1 (single isomer, unassigned) [Example 124.0, (1R,2S)-1-(5-chloropyrimidin-2-yl)-1-methoxy-N-(4-(1-methylcyclopropyl)-5-((R)-tetrahydrofuran-3-yl)-4H-1,2,4-triazol-3-yl)propane-2-sulfonamide or (1R,2S)-1-(5-chloropyrimidin-2-yl)-1-methoxy-N-(4-(1-methylcyclopropyl)-5-((S)-tetrahydrofuran-3-yl)-4H-1,2,4-triazol-3-yl)propane-2-sulfonamide] | 6.36
5 | (2R)-N-(4-(2,6-dimethoxyphenyl)-5-(tetrahydro-2H-pyran-4-yl)-4H-1,2,4-triazol-3-yl)-1-(5-fluoro-2-pyrimidinyl)-2-propanesulfonamide or (2S)-N-(4-(2,6-dimethoxyphenyl)-5-(tetrahydro-2H-pyran-4-yl)-4H-1,2,4-triazol-3-yl)-1-(5-fluoro-2-pyrimidinyl)-2-propanesulfonamide [Example 17.0] | 6.09
6 | (1R,2S)-N-(4-([1,1′-bi(cyclopropyl)]-1-yl)-5-((2S)-1,4-dioxan-2-yl)-4H-1,2,4-triazol-3-yl)-1-(5-chloro-2-pyrimidinyl)-1-methoxy-2-propanesulfonamide or (1R,2S)-N-(4-([1,1′-bi(cyclopropyl)]-1-yl)-5-((2R)-1,4-dioxan-2-yl)-4H-1,2,4-triazol-3-yl)-1-(5-chloro-2-pyrimidinyl)-1-methoxy-2-propanesulfonamide [Example 325.0] | 7.85
7 | (2S,3R)-3-(5-Chloropyrimidin-2-yl)-N-(4-(3,5-dibromo-2,6-dimethoxyphenyl)-5-((R)-tetrahydrofuran-3-yl)-4H-1,2,4-triazol-3-yl)butane-2-sulfonamide or (2S,3R)-3-(5-chloropyrimidin-2-yl)-N-(4-(3,5-dibromo-2,6-dimethoxyphenyl)-5-((S)-tetrahydrofuran-3-yl)-4H-1,2,4-triazol-3-yl)butane-2-sulfonamide [Example 254.0] | 6.51
8 | COc1ncnc(OC)c1-n1c(NS(=O)(=O)[C@@H](C)[C@@H](OC(C)C)c2ncc(Cl)cn2)nnc1[C@H]1CCOC1 (single isomer, unassigned) [Example 292.0, (1S,2S)-1-(5-chloropyrimidin-2-yl)-N-(4-(4,6-dimethoxypyrimidin-5-yl)-5-((R)-tetrahydrofuran-3-yl)-4H-1,2,4-triazol-3-yl)-1-isopropoxypropane-2-sulfonamide or (1S,2S)-1-(5-chloropyrimidin-2-yl)-N-(4-(4,6-dimethoxypyrimidin-5-yl)-5-((S)-tetrahydrofuran-3-yl)-4H-1,2,4-triazol-3-yl)-1-isopropoxypropane-2-sulfonamide] | 7.74
9 | COCCn1c(NS(=O)(=O)[C@@H](C)[C@H](OC)c2ncc(Cl)cn2)nnc1[C@H]1CCC(C)(C)O1 (single isomer, unassigned) [Example 287.0, (1R,2S)-1-(5-chloropyrimidin-2-yl)-N-(5-((R)-5,5-dimethyltetrahydrofuran-2-yl)-4-(2-methoxyethyl)-4H-1,2,4-triazol-3-yl)-1-methoxypropane-2-sulfonamide or (1R,2S)-1-(5-chloropyrimidin-2-yl)-N-(5-((S)-5,5-dimethyltetrahydrofuran-2-yl)-4-(2-methoxyethyl)-4H-1,2,4-triazol-3-yl)-1-methoxypropane-2-sulfonamide] | 6.07
10 | (2S,3R)-3-(5-chloropyrimidin-2-yl)-N-(4-(2,6-dimethoxyphenyl)-5-((R)-1,1-dioxidotetrahydrothiophen-3-yl)-4H-1,2,4-triazol-3-yl)butane-2-sulfonamide or (2S,3R)-3-(5-chloropyrimidin-2-yl)-N-(4-(2,6-dimethoxyphenyl)-5-((S)-1,1-dioxidotetrahydrothiophen-3-yl)-4H-1,2,4-triazol-3-yl)butane-2-sulfonamide [Example 189.0] | 6.70
11 | Cc1cnc([C@@H](C)[C@H](C)S(=O)(=O)Nc2nnc([C@@H]3CCCO3)n2-c2c(F)cccc2F)nc1 [Example 18.0, (2S,3R)-N-(4-(2,6-difluorophenyl)-5-((2S)-tetrahydro-2-furanyl)-4H-1,2,4-triazol-3-yl)-3-(5-methyl-2-pyrimidinyl)-2-butanesulfonamide] | 6.92
12 | COc1ncnc(OC)c1-n1c(NS(=O)(=O)[C@@H](C)[C@H](C)c2ncc(C)cn2)nnc1[C@H]1CCCO1 (single isomer, unassigned) [Example 69.0, (2S,3R)-N-(4-(4,6-dimethoxypyrimidin-5-yl)-5-((S)-tetrahydrofuran-2-yl)-4H-1,2,4-triazol-3-yl)-3-(5-methylpyrimidin-2-yl)butane-2-sulfonamide or (2S,3R)-N-(4-(4,6-dimethoxypyrimidin-5-yl)-5-((R)-tetrahydrofuran-2-yl)-4H-1,2,4-triazol-3-yl)-3-(5-methylpyrimidin-2-yl)butane-2-sulfonamide] | 7.09
13 | (2S,3R)-N-(4-(2,6-bis((trideutero)methyloxy)phenyl)-5-((3R)-tetrahydro-3-furanyl)-4H-1,2,4-triazol-3-yl)-3-(5-chloro-2-pyrimidinyl)-2-butanesulfonamide or (2S,3R)-N-(4-(2,6-bis((trideutero)methyloxy)phenyl)-5-((3S)-tetrahydro-3-furanyl)-4H-1,2,4-triazol-3-yl)-3-(5-chloro-2-pyrimidinyl)-2-butanesulfonamide [Example 391.0] | 7.82
14 | CO[C@H](c1ncc(Cl)cn1)[C@H](C)S(=O)(=O)Nc1nnc([C@H]2CCOC2)n1C(C)C (single isomer, unassigned) [Example 297.0, (1R,2S)-1-(5-chloropyrimidin-2-yl)-N-(4-isopropyl-5-((R)-tetrahydrofuran-3-yl)-4H-1,2,4-triazol-3-yl)-1-methoxypropane-2-sulfonamide or (1R,2S)-1-(5-chloropyrimidin-2-yl)-N-(4-isopropyl-5-((S)-tetrahydrofuran-3-yl)-4H-1,2,4-triazol-3-yl)-1-methoxypropane-2-sulfonamide] | 5.83
15 | (2S,3R)-N-(4-(1,3-dimethoxy-2-propanyl)-5-((2R,5R)-5-methyltetrahydro-2-furanyl)-4H-1,2,4-triazol-3-yl)-3-(5-fluoro-2-pyrimidinyl)-2-butanesulfonamide or (2S,3R)-N-(4-(1,3-dimethoxy-2-propanyl)-5-((2S,5S)-5-methyltetrahydro-2-furanyl)-4H-1,2,4-triazol-3-yl)-3-(5-fluoro-2-pyrimidinyl)-2-butanesulfonamide [Example 369.0] | 7.68
16 | CO[C@H](c1ncc(Cl)cn1)[C@H](C)S(=O)(=O)Nc1nnc([C@H]2CCOC2)n1C(C)C (single isomer, unassigned) [Example 298.0, (1R,2S)-1-(5-chloropyrimidin-2-yl)-N-(4-isopropyl-5-((R)-tetrahydrofuran-3-yl)-4H-1,2,4-triazol-3-yl)-1-methoxypropane-2-sulfonamide or (1R,2S)-1-(5-chloropyrimidin-2-yl)-N-(4-isopropyl-5-((S)-tetrahydrofuran-3-yl)-4H-1,2,4-triazol-3-yl)-1-methoxypropane-2-sulfonamide] | 5.72
17 | (1R,2S)-N-(4-(2,6-dimethoxyphenyl)-5-((R)-1,4-dioxan-2-yl)-4H-1,2,4-triazol-3-yl)-1-methoxy-1-(5-methylpyrimidin-2-yl)propane-2-sulfonamide or (1R,2S)-N-(4-(2,6-dimethoxyphenyl)-5-((S)-1,4-dioxan-2-yl)-4H-1,2,4-triazol-3-yl)-1-methoxy-1-(5-methylpyrimidin-2-yl)propane-2-sulfonamide [Example 202.0] | 6.92
18 | COc1cccc(OC)c1-n1c(NS(=O)(=O)CCc2ccc(Cl)cc2)nnc1[C@@H]1CCCO1 (single isomer, unassigned) [Example 144.0, (S)-2-(4-Chlorophenyl)-N-(4-(2,6-dimethoxyphenyl)-5-(tetrahydrofuran-2-yl)-4H-1,2,4-triazol-3-yl)ethanesulfonamide or (R)-2-(4-chlorophenyl)-N-(4-(2,6-dimethoxyphenyl)-5-(tetrahydrofuran-2-yl)-4H-1,2,4-triazol-3-yl)ethanesulfonamide] | 7.10
